{"source": "patent US20250125004A1", "about": "“SYSTEMS AND METHODS FOR POST-TRANSLATIONAL MODIFICATION-INSPIRED DRUG DESIGN AND SCREENING” (Ensem Therapeutics, Inc., priority 2021, published 2025)", "key": {"[1]": {"target": "T1, c-Src (Homo sapiens, UniProt P12931)", "T1 sequence (P12931 86-536)": "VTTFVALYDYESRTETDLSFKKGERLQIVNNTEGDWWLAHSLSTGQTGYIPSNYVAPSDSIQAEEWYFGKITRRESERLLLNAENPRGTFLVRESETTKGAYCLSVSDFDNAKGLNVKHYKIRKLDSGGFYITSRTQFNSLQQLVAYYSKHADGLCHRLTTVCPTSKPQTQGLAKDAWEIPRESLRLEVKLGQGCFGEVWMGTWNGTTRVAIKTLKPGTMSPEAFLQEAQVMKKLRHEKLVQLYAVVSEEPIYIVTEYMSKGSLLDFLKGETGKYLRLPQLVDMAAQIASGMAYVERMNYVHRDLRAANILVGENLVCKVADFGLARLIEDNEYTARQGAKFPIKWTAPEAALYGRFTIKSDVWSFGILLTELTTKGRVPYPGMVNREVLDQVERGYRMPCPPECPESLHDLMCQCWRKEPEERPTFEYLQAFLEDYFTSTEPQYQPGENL", "assay": "Intact protein mass by HPLC/MS, covalent binding", "details": "about 20 μM c-Src, 100 μM compound, 4° C., 8 hours; expected 316.34 Da for a single covalent adduct", "experimental": "c-Src protein was diluted to approximately 20 μM in final buffer and incubated with compound at a final concentration of 100 μM or same volume of DMSO at 4° C. for 8 hours. Then, the protein samples were diluted into aqueous solution containing 0.1% formic acid (about 1 mg/mL), and 2 μg of the target protein samples were took for LC/MS analysis. Intact protein high-resolution mass spectrometry was performed using Ultimate 3000 LC liquid chromatograph and LTQ Orbitrap mass spectrometer equipped with HESI ion source (Thermo Fisher, CA). BioPharma Finder software (version 2.0, Thermal Fischer, California) was used to process the raw LC-MS data, and the […] deconvolution algorithm was used to obtain the intact protein masses."}, "[2]": {"target": "c-Src Y419 autophosphorylation (His-tag Src-k protein) (Homo sapiens, UniProt P12931)", "sequence (P12931 254-536)": "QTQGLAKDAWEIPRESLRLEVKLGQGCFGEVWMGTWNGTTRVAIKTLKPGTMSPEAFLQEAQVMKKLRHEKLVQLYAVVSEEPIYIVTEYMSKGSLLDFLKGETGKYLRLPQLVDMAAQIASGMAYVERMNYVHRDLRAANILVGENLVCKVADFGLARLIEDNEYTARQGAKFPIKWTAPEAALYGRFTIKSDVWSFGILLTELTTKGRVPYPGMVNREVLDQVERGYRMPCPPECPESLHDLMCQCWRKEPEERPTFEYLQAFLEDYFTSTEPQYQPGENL", "assay": "Amplified Luminescent Proximity Homogeneous Assay (ALPHA), auto-phosphorylation of c-Src Y419", "format": "biochemical", "details": "90 min incubation, n=3, read-out: IC50, inhibition of autophosphorylation of c-Src Y419", "experimental": "Human c-Src kinase domain (Src-k, including WT and C280S, 254-536) with a TEV protease cleavable N-terminal 6×-His tag was cloned into pET28a vector and co-expressed with full length YopH phosphatase cloned to pCDFDuet-1 vector in Escherichia coli BL21 (DE3) cells. Cells were cultured in LB medium at 37° C. and induced with 0.4 mM IPTG at 18° C. for 16 hours. Proteins were purified using HisTrap FF column (GE Healthcare) in buffer containing 50 mM Hepes pH=8.0, 500 mM NaCl, 5% glycerol and imidazole (25 mM for loading, 150 mM for elution). After TEV enzyme cleavage, proteins were loaded to Hitrap Q FF (GE Healthcare) in buffer containing 20 mM Hepes pH=8.0, 5% glycerol, 1 mM DTT (QA) and eluted with a linear gradient of 10-30% buffer QB (buffer QA plus 1M NaCl). Then proteins were further purified by Superdex75™ 10/300 GL column (GE Healthcare) and change the buffer to 20 mM Hepes pH=7.4, 150 mM NaCl, 1 mM DTT. The ability of compounds to inhibit the auto-phosphorylation of c-Src Y419 was determined by Amplified Luminescent Proximity Homogeneous Assay (ALPHA). ALPHA assay was carried out in assay buffer containing 20 mM Hepes, pH=7.4, 0.1% Triton X-100, 1 mM DTT, 0.1% bovine serum albumin (w/v)). […] Finally, the signals were measured in ALPHA protocol using EnVision reader and the IC50 values analyzed in Graphpad Prism 8.0."}, "[3]": {"target": "c-Src (Src-k protein) (Homo sapiens, UniProt P12931)", "sequence (P12931 254-536)": "as above", "assay": "Protein thermal shift (PTS) assay", "format": "binding", "experimental": "Human c-Src kinase domain (Src-k, including WT and C280S, 254-536) with a TEV protease cleavable N-terminal 6×-His tag was cloned into pET28a vector and co-expressed with full length YopH phosphatase cloned to pCDFDuet-1 vector in Escherichia coli BL21 (DE3) cells. Cells were cultured in LB medium at 37° C. and induced with 0.4 mM IPTG at 18° C. for 16 hours. Proteins were purified using HisTrap FF column (GE Healthcare) in buffer containing 50 mM Hepes pH=8.0, 500 mM NaCl, 5% glycerol and imidazole (25 mM for loading, 150 mM for elution). After TEV enzyme cleavage, proteins were loaded to Hitrap Q FF (GE Healthcare) in buffer containing 20 mM Hepes pH=8.0, 5% glycerol, 1 mM DTT (QA) and eluted with a linear gradient of 10-30% buffer QB (buffer QA plus 1M NaCl). Then proteins were further purified by Superdex75TM 10/300 GL column (GE Healthcare) and change the buffer to 20 mM Hepes pH=7.4, 150 mM NaCl, 1 mM DTT. Protein thermal shift (PTS) assays were performed on a QuantStudioTM 6 Flex Real-time PCR system (Applied Biosystems). […] Src-k protein, 5×SYPRO® orange (Molecular Probes) and different concentrations of compounds were mixed in 20 μL final buffer and added to 96-well plates (DN Biotech). According to the standard protocol, the reaction system was heated from 25° C. to 95° C. within 25 minutes, and the fluorescence signal was monitored in real time. Protein […] ShiftTM Software Version 1.2 (Life Technologies) was used to determine the Tm value and Graphpad Prism 8.0 was used to draw the curves. The Y419-phosphorylated protein used was obtained by incubating Src-k protein with 5 mM MgCl2 and 10 mM ATP overnight, and then desalting it into final buffer."}, "[4]": {"target": "T1, c-Src", "assay": "Homogeneous time-resolved fluorescence (HTRF) assay, KinEASE-TK kit", "format": "biochemical", "details": "120 min incubation, n=3 for DC-Srci-6668, read-out: IC50, inhibition of c-Src catalytic activity", "experimental": "Based on this, covalent docking was performed against an in-house compound library, consisting of 720 compounds with reactive chemical groups. After score ranking and cluster analysis (FIG. 6B), 16 compounds were selected and purchased from ChemDiv (San Diego, CA, USA) for subsequent biochemical evaluations. Although IC50 values are time-dependent for covalent inhibitor and cannot be used to fully characterize the true binding affinity, they are also recognized as an indicator for preliminary evaluating the biological activity of covalent compounds. The homogeneous time resolved fluorescence (HTRF) assay was then conducted to determine the compound inhibitory activity, using the HTRF KinEASE-TK kit (Cisbio, Bedford, MA, USA). […] The cells were infected with baculovirus at 27° C. for 48-72 hours before collection. Cells were lysed in buffer containing 20 mM Hepes pH=7.4, 150 mM NaCl, 1 mM DTT, 1× protease inhibitor cocktail (Roche) and 1 mM PMSF. […] The ability of compounds to inhibit the phosphorylation of a peptide substrate by c-Src kinase was evaluated by homogeneous time-resolved fluorescence (HTRF) using KinEASE-TK kit (Cisbio, Bedford, MA, USA). […] Finally, fluorescence was measured at 615 nm and 665 nm using EnVision reader (PerkinElmer). The results were calculated as follows: ratio=OD665/OD615 and the IC50 values were analyzed in Graphpad Prism 8.0."}}}
{"smiles": "O=C(NC1CCCC1)C(c1ccc(F)cc1)N(C(=O)CCl)C1CC1", "note": "(stereo not drawn) [DC-Srci-6668]", "values": [{"measurement": "increase of MW of c-Src after compound treatment", "setting": "[1]", "value": 316.64, "unit": "Da"}, {"measurement": "IC50", "setting": "[2]", "value": "3.88 ± 0.586", "unit": "µM"}, {"measurement": "positive Tm shift of c-Src", "setting": "[3]; concentration ratio 1:5", "value": 1.50, "unit": "°C"}, {"measurement": "positive Tm shift of c-Src", "setting": "[3]; concentration ratio 1:10", "value": 2.56, "unit": "°C"}, {"measurement": "positive Tm shift of c-Src", "setting": "[3]; concentration ratio 1:20", "value": 3.30, "unit": "°C"}, {"measurement": "IC50", "setting": "[4]", "value": "2.39 ± 0.164", "unit": "µM"}]}
